Data: US4698350A, “1-ethyl-6-fluoro-1,4-dihydro- 7-(2,6-dimethyl-4-pyridinyl)-4-oxo-3-quinolinecarboxylic acid and antibacterial use thereof” (Sterling Drug Inc., priority 1984, dated 1987)
Counter-ions that a name gives are not always drawn.

Experiments:
Test in all cases: In vitro antibacterial MIC/MBC test
Assay type in all cases: cell-based
S. aureus Glorgio = details: Staphylococcus aureus, S. aureus Glorgio
Procedure: (§1) Win 52,522 and Win 35,439 were solubilized in 0.1 ml of 0.5 N NaOH/mg of compound and diluted in sterile distilled water to 160 mcg/ml. Vancomycin and methicillin were solubilized in sterile distilled water to 1250 mcg/ml of base compound. The stock solutions were sterilized by filtration through membrane filters with a 0.45 μm pore size.
(§2) The bacterial cultures listed in Table I (hereinbelow) were grown overnight at 37° C. in MHB for all cultures except the Streptococcus strains. These were grown in BHI+10% NHS. The overnight broth cultures were adjusted to an optical density of 0.10 (650 nm, B L Spectronic 20) in sterile distilled water and subsequently diluted to 6.7×10^6 cells/ml in MHB or BHI+1% NHS.
(§3) Serial two-fold dilutions of the compound solutions were prepared in MHB (or in BHI+1% NHS for tests with Streptococci) and dispensed into 96-well microtiter trays in a volume of 0.1 ml/well using a Sandy Springs (Bellco Glass Co.) dispenser. The trays were then inoculated with 0.0015 ml of a suspension containing 6.7×10^6 cells/ml of the appropriate inoculum using a MIC-2000 inoculator (Dynatech Corp.) resulting in a final inoculum of approximately 1×10^4 cells/well or 1×10^5 cells/ml. The trays were incubated at 37° C. for 18-20 hours and the minimal inhibitory concentration (MIC), defined as the lowest concentration of compound to inhibit visible bacterial growth, was recorded.
(§4) After the MIC values were recorded, the contents in the microtiter trays were thoroughly mixed on a Bellco Mini-orbital Shaker (Bellco Glass Co.) for 3 min. at a setting of 8. A portion (0.0015 ml) from each well was then transferred via an MIC-2000 inoculator to plates containing MHA or BHI agar+10% NHS. The plates were incubated at 37° C. for 18-20 hrs. The minimal bactericidal concentration (MBC), defined as the lowest concentration of compound that prevented the formation of a recognizable colony on the agar surface, was recorded.

S. aureus S-234 = details: Staphylococcus aureus, S234, S. aureus S-234
Procedure: as §1, §2, §3, §4

S. pneumoniae Type I = details: Streptococcus pneumoniae, S. pneumoniae Type I
Procedure: as §1, §2, §3, §4

S. epidermidis 1-3-H = details: Staphylococcus epidermidis, 13H, S. epidermidis 1-3-H
Procedure: as §1, §2, §3, §4

S. pyogenes (89) = details: Streptococcus pyogenes, S. pyogenes SWRI No. 89
Procedure: as §1, §2, §3, §4

S. aureus 4-81 = details: Staphylococcus aureus, 481, S. aureus 4-81
Procedure: as §1, §2, §3, §4

S. pyogenes C203 = details: Streptococcus pyogenes, S. pyogenes C203
Procedure: as §1, §2, §3, §4

S. aureus 39881 = details: Staphylococcus aureus, S. aureus 39881
Procedure: as §1, §2, §3, §4

S. pyogenes 7948-15 = details: Streptococcus pyogenes, 794815, S. pyogenes 7948-15
Procedure: as §1, §2, §3, §4

S. aureus 24-81 = details: Staphylococcus aureus, 2481, S. aureus 24-81
Procedure: as §1, §2, §3, §4

S. enterococcus 0-2-13 = details: 0213, S. enterococcus 0-2-13
Procedure: as §1, §2, §3, §4

S. aureus 21-81A = details: Staphylococcus aureus, 2181A, S. aureus 21-81A
Procedure: as §1, §2, §3, §4

S. pneumoniae Type III = details: Streptococcus pneumoniae, S. pneumoniae Type III
Procedure: as §1, §2, §3, §4

S. faecalis (11700) = details: Enterococcus faecalis, ATCC11700, S. faecalis ATCC No. 11700
Procedure: as §1, §2, §3, §4

S. aureus (25923) = details: Staphylococcus aureus, ATCC25923, S. aureus ATCC No. 25923
Procedure: as §1, §2, §3, §4

S. aureus 34-81 = details: Staphylococcus aureus, 3481, S. aureus 34-81
Procedure: as §1, §2, §3, §4

S. epidermidis 1-5-H = details: Staphylococcus epidermidis, 15H, S. epidermidis 1-5-H
Procedure: as §1, §2, §3, §4

S. faecalis (8043) = details: Enterococcus faecalis, ATCC8043, S. faecalis ATCC No. 8043
Procedure: as §1, §2, §3, §4

S. epidermidis (17917) = details: Staphylococcus epidermidis, ATCC17917, S. epidermidis ATCC No. 17917
Procedure: as §1, §2, §3, §4

S. aureus 59-81 = details: Staphylococcus aureus, 5981, S. aureus 59-81
Procedure: as §1, §2, §3, §4

S. aureus 41-81 = details: Staphylococcus aureus, 4181, S. aureus 41-81
Procedure: as §1, §2, §3, §4

Structure (SMILES): COc1cccc(OC)c1C(=O)N[C@@H]1C(=O)N2[C@@H]1SC(C)(C)[C@@H]2C(=O)O [Methicillin, 6-(2,6-dimethoxybenzamido)penicillanic acid sodium salt]
- MBC (S. aureus Glorgio; read-out: MBC): 4 µg/mL
- MIC (S. aureus Glorgio; read-out: MIC): 2 µg/mL
- MBC (S. aureus S-234; read-out: MBC): 32 µg/mL
- MIC (S. aureus S-234; read-out: MIC): 8 µg/mL
- MBC (S. pneumoniae Type I; read-out: MBC): ≤ 0.06 µg/mL
- MIC (S. pneumoniae Type I; read-out: MIC): ≤ 0.06 µg/mL
- MBC (S. epidermidis 1-3-H; read-out: MBC): 4 µg/mL
- MIC (S. epidermidis 1-3-H; read-out: MIC): 2 µg/mL
- MBC (S. pyogenes (89); read-out: MBC): ≤ 0.06 µg/mL
- MIC (S. pyogenes (89); read-out: MIC): ≤ 0.06 µg/mL
- MBC (S. aureus 4-81; read-out: MBC): 2 µg/mL
- MIC (S. aureus 4-81; read-out: MIC): 2 µg/mL
- MBC (S. pyogenes C203; read-out: MBC): 0.125 µg/mL
- MIC (S. pyogenes C203; read-out: MIC): 0.125 µg/mL
- MBC (S. aureus 39881; read-out: MBC): > 125 µg/mL
- MIC (S. aureus 39881; read-out: MIC): 125 µg/mL
- MBC (S. pyogenes 7948-15; read-out: MBC): 0.125 µg/mL
- MIC (S. pyogenes 7948-15; read-out: MIC): 0.25 µg/mL
- MBC (S. aureus 24-81; read-out: MBC): 2 µg/mL
- MIC (S. aureus 24-81; read-out: MIC): 1 µg/mL
- MBC (S. enterococcus 0-2-13; read-out: MBC): 8 µg/mL
- MIC (S. enterococcus 0-2-13; read-out: MIC): 8 µg/mL
- MBC (S. aureus 21-81A; read-out: MBC): 1 µg/mL
- MIC (S. aureus 21-81A; read-out: MIC): 1 µg/mL
- MBC (S. pneumoniae Type III; read-out: MBC): 0.125 µg/mL
- MIC (S. pneumoniae Type III; read-out: MIC): 0.125 µg/mL
- MBC (S. faecalis (11700); read-out: MBC): 64 µg/mL
- MIC (S. faecalis (11700); read-out: MIC): 64 µg/mL
- MBC (S. aureus (25923); read-out: MBC): 2 µg/mL
- MIC (S. aureus (25923); read-out: MIC): 2 µg/mL
- MBC (S. aureus 34-81; read-out: MBC): 2 µg/mL
- MIC (S. aureus 34-81; read-out: MIC): 1 µg/mL
- MBC (S. epidermidis 1-5-H; read-out: MBC): 2 µg/mL
- MIC (S. epidermidis 1-5-H; read-out: MIC): 1 µg/mL
- MBC (S. faecalis (8043); read-out: MBC): > 125 µg/mL
- MIC (S. faecalis (8043); read-out: MIC): > 125 µg/mL
- MBC (S. epidermidis (17917); read-out: MBC): 4 µg/mL
- MIC (S. epidermidis (17917); read-out: MIC): 4 µg/mL
- MBC (S. aureus 59-81; read-out: MBC): 64 µg/mL
- MIC (S. aureus 59-81; read-out: MIC): 32 µg/mL
- MBC (S. aureus 41-81; read-out: MBC): 1 µg/mL
- MIC (S. aureus 41-81; read-out: MIC): 1 µg/mL
